Results published in patent US8946142B2, “Beta-arrestin effectors and compositions and methods of use thereof” (Trevena, Inc., priority 2012, dated 2015).
Read-outs that look alike come from different tables or passages of the source. Where a SMILES comes first, the peptide text is derived from it. Bridges are numbered along the chain shown (N, C = ends). [ ]: non-standard residue; d: D form. The star is where a group is joined. Val(3-OH) = CC(C)(O)[C@H](N)C(=O)O; Tle = CC(C)(C)[C@H](N)C(=O)O; Ac6c = NC1(C(=O)O)CCCCC1; NHCH2tBu = CC(C)(C)CN*; Aib = CC(C)(N)C(=O)O; Sar = CNCC(=O)O

Legend:
human AT1R = molecular target: T1, human AT1R (Homo sapiens, UniProt P30556); assay: beta-arrestin2 recruitment assay (PathHunter), human AT1R; format: cell-based; conditions: for Emax: 1 h, read-out: Span (relative to hAngII)
T1 sequence (P30556 1-359): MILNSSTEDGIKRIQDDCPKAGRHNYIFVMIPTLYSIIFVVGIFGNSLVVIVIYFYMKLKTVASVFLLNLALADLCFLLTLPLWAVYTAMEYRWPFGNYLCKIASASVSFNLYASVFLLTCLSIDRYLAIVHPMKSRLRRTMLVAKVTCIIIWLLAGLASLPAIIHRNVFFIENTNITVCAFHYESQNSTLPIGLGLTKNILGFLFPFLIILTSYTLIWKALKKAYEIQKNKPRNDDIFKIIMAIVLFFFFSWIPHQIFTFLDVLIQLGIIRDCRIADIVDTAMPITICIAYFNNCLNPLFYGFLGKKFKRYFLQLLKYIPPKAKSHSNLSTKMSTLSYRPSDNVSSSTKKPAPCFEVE
Description: (§1) The proximal event in β-arrestin function mediated by GPCRs is recruitment to receptors following ligand binding and receptor phosphorylation by GRK's. Thus, the measure of β-arrestin recruitment was used to determine ligand efficacy for β-arrestin function.
(§2) B-arrestin-2 recruitment to the human and rat angiotensin 2 type 1 receptor (human AT1R and rat AT1aR, respectively) was measured with the PathHunter™ μl-arrestin assay (DiscoveRx Corporation, Fremont Calif.). Cells, plasmid(s), and detection reagent(s) were purchased from DiscoveRx, and assays were performed per manufacturer's instructions. Human AT1R and rat AT1aR were cloned into the pCMV-ProLink vector, verified by sequencing, and transfected into PathHunter β-arrestin HEK293 cells. Stably transfected clonal cell lines were selected with Hygromycin and G418. These clonal cell lines were used for all experiments.
(§3) For assays, 4,000-8,000 cells were seeded per well in 384-well microplates “HiBase” small-volume plate in volumes of 20 uL and grown overnight in the incubator (37° C., 5% CO2, saturated humidity). Peptides were dissolved in DMSO to a concentration of 10 mM. Peptides were then further diluted in assay buffer (Hank's balanced salt solution with 20 mM HEPES) to add peptide to the cells to reach final concentrations ranging from 100 μM to 1 pM. Cells were then incubated for 60 minutes at 37° C. in 5% CO2, followed by addition of 2 μL of PathHunter Detection Reagent to each well. The microplates were then incubated at room temperature for 60 minutes, and then luminescence was measured using a PHERAstar Plus microplate reader from BMG Labtech. B-arrestin-2 recruitment to receptors was measured as relative luminescence intensity expressed in arbitrary units.

rat AT1aR = molecular target: T2, rat AT1aR (Rattus norvegicus, UniProt P25095); assay: beta-arrestin2 recruitment assay (PathHunter), rat AT1aR; format: cell-based; conditions: for Emax: 1 h, read-out: Span (relative to hAngII)
T2 sequence (P25095 1-359): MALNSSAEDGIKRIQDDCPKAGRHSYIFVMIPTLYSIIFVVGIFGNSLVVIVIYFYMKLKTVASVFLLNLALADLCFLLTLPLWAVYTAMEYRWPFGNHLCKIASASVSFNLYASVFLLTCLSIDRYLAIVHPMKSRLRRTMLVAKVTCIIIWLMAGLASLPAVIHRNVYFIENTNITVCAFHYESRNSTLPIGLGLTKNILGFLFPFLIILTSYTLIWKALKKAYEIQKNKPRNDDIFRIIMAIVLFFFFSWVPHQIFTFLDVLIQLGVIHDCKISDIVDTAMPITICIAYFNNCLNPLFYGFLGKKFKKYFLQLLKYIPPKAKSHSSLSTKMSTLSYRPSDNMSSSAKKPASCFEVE
Description: as §1, §2, §3

Row | SMILES | Emax (human AT1R) [%] | EC50 (human AT1R; read-out: EC50) [nM] | EC50 (human AT1R; read-out: pEC50 (converted)) [nM] | Emax (rat AT1aR) [%] | EC50 (rat AT1aR; read-out: EC50) [nM] | EC50 (rat AT1aR; read-out: pEC50 (converted)) [nM]
1 | CNCC(=O)N[C@@H](CCCNC(=N)N)C(=O)N[C@H](C(=O)N[C@@H](Cc1ccc(O)cc1)C(=O)N[C@H](C(=O)N[C@@H](Cc1c[nH]cn1)C(=O)N1CCC[C@H]1C(=O)N[C@H](C(=O)O)C(C)C)C(C)(C)C)C(C)C [SEQ ID NO: 29, Sar-Arg-Val-Tyr-AA02-His-Pro-Val] (H-[Sar]RVY[Tle]HPV-OH) | < 101 | > 3.2 | > 3.16 | < 105 | > 3.2 | > 3.16
2 | CNCC(=O)N[C@@H](CCCNC(=N)N)C(=O)N[C@H](C(=O)N[C@@H](Cc1ccc(O)cc1)C(=O)NC1(C(=O)N[C@@H](Cc2c[nH]cn2)C(=O)N2CCC[C@H]2C(=O)NC)CCCCC1)C(C)C [SEQ ID NO: 49, Sar-Arg-Val-Tyr-cyHex-His-Pro-NH-methyl] (H-[Sar]RVY[Ac6c]HP-NHMe) | < 101 | > 3.2 | > 3.16 | < 105 | > 3.2 | > 3.16
3 | CNCC(=O)N[C@@H](CCCNC(=N)N)C(=O)N[C@H](C(=O)N[C@@H](Cc1ccc(O)cc1)C(=O)NC1(C(=O)N[C@@H](Cc2c[nH]cn2)C(=O)N2CCC[C@H]2C(=O)N[C@@H](CC(N)=O)C(=O)O)CCCCC1)C(C)C [SEQ ID NO: 36, Sar-Arg-Val-Tyr-cyHex-His-Pro-Asn] (H-[Sar]RVY[Ac6c]HPN-OH) | < 101 | > 3.2 | > 3.16 | < 105 | > 3.2 | > 3.16
4 | CC[C@H](C)[C@@H]1NC(=O)[C@H](NC(=O)[C@@H](NC(=O)[C@H](CCCNC(=N)N)NC(=O)CNC)C(C)C)CSSC[C@@H](C(=O)N[C@H](C)C(=O)O)NC(=O)[C@H](Cc2c[nH]cn2)NC1=O [SEQ ID NO: 52, Sar-Arg-Val-D-Cys-Ile-His-Cys-D-Ala] (H-[Sar]RV[dC]IHC[dA]-OH; disulfide 4-7; N-terminus and C-terminus assumed) | < 101 |  |  | < 105 |  | 
5 | CNCC(=O)N[C@@H](CCCNC(=N)N)C(=O)N[C@H](C(=O)N[C@@H](Cc1ccc(O)cc1)C(=O)NC1(C(=O)N[C@@H](Cc2c[nH]cn2)C(=O)N2CCC[C@H]2C(=O)O)CCCCC1)C(C)C [SEQ ID NO: 41, Sar-Arg-Val-Tyr-cyHex-His-Pro] (H-[Sar]RVY[Ac6c]HP-OH) | < 101 | > 3.2 | > 3.16 | < 105 | > 3.2 | > 3.16
6 | CNCC(=O)N[C@@H](CCCNC(=N)N)C(=O)N[C@H](C(=O)N[C@@H](Cc1ccc(O)cc1)C(=O)NC1(C(=O)N[C@@H](Cc2c[nH]cn2)C(=O)N2CCC[C@H]2C(=O)N[C@@H](CCCCN)C(=O)O)CCCCC1)C(C)C [SEQ ID NO: 50, Sar-Arg-Val-Tyr-cyHex-His-Pro-Lys] (H-[Sar]RVY[Ac6c]HPK-OH) | < 101 | > 3.2 | > 3.16 | < 105 | > 3.2 | > 3.16
7 | CNCC(=O)N[C@@H](CCCNC(=N)N)C(=O)N[C@H](C(=O)N[C@@H](Cc1ccc(O)cc1)C(=O)NC(C)(C)C(=O)N[C@@H](Cc1c[nH]cn1)C(=O)N1CCC[C@H]1C(=O)N[C@H](C(=O)O)[C@@H](C)O)C(C)C [SEQ ID NO: 40, Sar-Arg-Val-Tyr-AA01-His-Pro-Thr] (H-[Sar]RVY[Aib]HPT-OH) | < 101 | > 3.2 | > 3.16 | < 105 | > 3.2 | > 3.16
8 | CNCC(=O)N[C@@H](CCCNC(=N)N)C(=O)N[C@H](C(=O)N[C@@H](Cc1ccc(O)cc1)C(=O)NC1(C(=O)N[C@@H](Cc2c[nH]cn2)C(=O)N2CCC[C@H]2C(=O)N[C@H](C(=O)O)C(C)(C)O)CCCCC1)C(C)C [SEQ ID NO: 31, Sar-Arg-Val-Tyr-cyHex-His-Pro-AA03] (H-[Sar]RVY[Ac6c]HP[Val(3-OH)]-OH) | < 101 | > 3.2 | > 3.16 | < 105 | > 3.2 | > 3.16
9 | CCNC(=O)[C@@H]1CCCN1C(=O)[C@H](Cc1c[nH]cn1)NC(=O)C1(NC(=O)[C@H](Cc2ccc(O)cc2)NC(=O)[C@@H](NC(=O)[C@H](CCCNC(=N)N)NC(=O)CNC)C(C)C)CCCCC1 [SEQ ID NO: 48, Sar-Arg-Val-Tyr-cyHex-His-Pro-NH-ethyl] (H-[Sar]RVY[Ac6c]HP-NHEt) | < 101 | > 3.2 | > 3.16 | < 105 | > 3.2 | > 3.16
10 | CNCC(=O)N[C@@H](CCCNC(=N)N)C(=O)N[C@H](C(=O)N[C@@H](Cc1ccc(O)cc1)C(=O)NC1(C(=O)N[C@@H](Cc2c[nH]cn2)C(=O)N2CCC[C@H]2C(=O)N[C@@H](CCC(=O)O)C(=O)O)CCCCC1)C(C)C [SEQ ID NO: 43, Sar-Arg-Val-Tyr-cyHex-His-Pro-Glu] (H-[Sar]RVY[Ac6c]HPE-OH) | < 101 | > 3.2 | > 3.16 | < 105 | > 3.2 | > 3.16
11 | CNCC(=O)N[C@@H](CCCNC(=N)N)C(=O)N[C@H](C(=O)N[C@@H](Cc1ccc(O)cc1)C(=O)NC1(C(=O)N[C@@H](Cc2c[nH]cn2)C(=O)N2CCC[C@H]2C(=O)NC(C)(C)C(=O)O)CCCCC1)C(C)C [SEQ ID NO: 35, Sar-Arg-Val-Tyr-cyHex-His-Pro-AA01] (H-[Sar]RVY[Ac6c]HP[Aib]-OH) | < 101 | > 3.2 | > 3.16 | < 105 | > 3.2 | > 3.16
12 | CNCC(=O)N[C@@H](CCCNC(=N)N)C(=O)N[C@H](C(=O)N[C@@H](Cc1ccc(O)cc1)C(=O)NC1(C(=O)N[C@@H](Cc2c[nH]cn2)C(=O)N2CCC[C@H]2C(=O)NCC(C)(C)C)CCCCC1)C(C)C [SEQ ID NO: 47, Sar-Arg-Val-Tyr-cyHex-His-Pro-NH-neopentyl] (H-[Sar]RVY[Ac6c]HP-NHCH2tBu) | < 101 | > 3.2 | > 3.16 |  |  | 
13 | CNCC(=O)N[C@@H](CCCNC(=N)N)C(=O)N[C@H](C(=O)N[C@@H](Cc1ccc(O)cc1)C(=O)NC1(C(=O)N[C@@H](Cc2c[nH]cn2)C(=O)N2CCC[C@H]2C(=O)NCC(=O)O)CCCCC1)C(C)C [SEQ ID NO: 32, Sar-Arg-Val-Tyr-cyHex-His-Pro-Gly] (H-[Sar]RVY[Ac6c]HPG-OH) | < 101 | > 3.2 | > 3.16 | < 105 | > 3.2 | > 3.16
14 | CNCC(=O)N[C@@H](CCCNC(=N)N)C(=O)N[C@H](C(=O)N[C@@H](Cc1ccc(O)cc1)C(=O)N[C@H](C(=O)N[C@@H](Cc1c[nH]cn1)C(=O)N1CCC[C@H]1C(=O)N[C@H](C(=O)O)[C@@H](C)O)C(C)(C)C)C(C)C [SEQ ID NO: 30, Sar-Arg-Val-Tyr-AA02-His-Pro-Thr] (H-[Sar]RVY[Tle]HPT-OH) | < 101 | > 3.2 | > 3.16 | < 105 | > 3.2 | > 3.16
